# Several values for one entry are separate records, joined by “and”; a condition that tells them apart may be missing. Equal values may be shown once. Read-outs that look alike come from different tables or passages of the source.
# Columns and labels:
# PTX-induced CIPN = experiment: Repetitive PTX exposure, 4-AP weeks 6-12, follow-up to week 18 (Example 6); format: in vivo, mice
# Method: To examine this question, 16 week old C7BL/6 female mice were given four cycles of PTX treatment at doses of 35 mg/kg PTX (i.p.). All animals had functionally demonstrable peripheral neuropathy at six weeks. Animals were then treated with the same dose and treatment regimen of 4-AP used in FIG. 5.
# CIS-induced CIPN = format: in vivo, mice; conditions: 4-AP 1 mg/kg daily for next six weeks
# Method: In these experiments, 16-week-old C7BL/6 female mice were treated with CIS (2.5 mg/kg, once weekly, i.p.) for eight weeks. Animals were then treated with 4-AP (1 mg/kg daily) for the next six weeks (n=4).
# [1] = Circulating 4-AP levels by HPLC (Example 11); format: in vivo, mice; conditions: for Circulating 4-AP levels, Amount / concentration at 1 h: 1 hour after i.p. injection, individual mice; for concentration at 1 h: mouse, blood, ip, 1 /g/kg, read-out: Circulating 4-AP levels, Amount
# Method: 4-AP was injected i.p. at the indicated time points after the beginning of treatment. Mice received PTX on day 0 of the experiment, and half of those mice also were injected with 4-AP at this time, and every day thereafter, at a dosage of 1/g/kg. Blood samples were drawn 3 and 7 days after the beginning of the experiment and were taken 1 hour after the injection of 4-AP. Circulating levels of 4-AP were determined by HPLC analysis.
# Guillain-Barré Syndrome = conditions: cited from earlier work
# [2] = 4-AP 0.5 mg/kg/day weeks 6-12, observed to week 18
# [3] = 4-AP 0.5 mg/kg/day weeks 6-12, 12 and 18 week time points
# [4] = mice treated with 4-AP only, 3 days post
# [5] = mice treated with PTX + 4-AP, 7 day 1st draw
smiles,measurement,setting,value
"Nc1ccncc1 [4-AP, 4-aminopyridine]",nerve conduction latency,PTX-induced CIPN; 4-AP 0.5 mg/kg/day weeks 6-12,reverse PTX-induced abnormalities in nerve conduction latency
same,Catwalk Regularity Index,PTX-induced CIPN; [2],"benefits observed at Week 9 (i.e, after 3 weeks of 4-AP treatment) and retained for at least 6 weeks after 4-AP treatment ended"
same,durability of benefits on peripheral nerve function,PTX-induced CIPN; [2],Benefits were still present six weeks after the end of treatment
same,"mechanical hypersensitivity, von Frey filament testing",PTX-induced CIPN; [2],Benefits began to be observed at Week 12 and were maintained at Weeks 15 and 18
same,"paw lifts and jumping behavior, cold-plate stimulus",PTX-induced CIPN; [2],durable reversal
same,G-ratio,PTX-induced CIPN; [3],"restored to normal at the 12 week time point, and these benefits are maintained at the 18 week time point"
same,circularity,PTX-induced CIPN; [3],"restored to normal at the 12 week time point, and these benefits are maintained at the 18 week time point"
same,body weight,CIS-induced CIPN; CIS 2.5 mg/kg once weekly i.p. for eight weeks,regained normal body weight
same,"hyperalgesia, Von Frey filament analysis",CIS-induced CIPN; CIS eight weeks,restoration of normal levels of sensitivity
same,nerve impulse amplitude,CIS-induced CIPN; CIS eight weeks,also restored by 4-AP treatment
same,nerve impulse velocity,CIS-induced CIPN; CIS eight weeks,also restored by 4-AP treatment
same,PTX-induced changes in kidney function (inferred from 4-AP renal clearance),"[1]; PTX day 0, 4-AP daily",prevented PTX-induced changes in kidney function
same,"circulating 4-AP levels, 4-AP alone versus 4-AP+PTX","[1]; day 3 or day 7, 1 hour after i.p. injection",did not differ
same,"Circulating 4-AP levels, Amount",[1]; [4],0.393 µM and 0.376 µM and 0.486 µM and 0.427 µM
same,"Circulating 4-AP levels, Amount","[1]; mice treated with 4-AP only, 7 day 1st draw",0.376 µM and 0.246 µM and 0.293 µM and 0.140 µM and 0.337 µM
same,"Circulating 4-AP levels, Amount","[1]; mice treated with PTX + 4-AP, 3 days post",0.721 µM and 0.504 µM and 0.312 µM and 0.321 µM and 0.277 µM
same,"Circulating 4-AP levels, Amount",[1]; [5],0.292 µM and 0.274 µM and 0.236 µM and 0.231 µM
same,concentration at 1 h,[1]; [4],298 nM
same,concentration at 1 h,[1]; [5],352 nM
same,"pain scores (McGill Pain Inventory questionnaire, visual analog scale)","Guillain-Barré Syndrome; 4-AP vs placebo, p=0.92",no difference
same,nerve conduction velocity,Guillain-Barré Syndrome; Guillain-Barré patients,no clinically significant changes

# Reference: US20260248773A1, “POTASSIUM CHANNEL BLOCKERS OR DERIVATIVES THEREOF FOR PREVENTING, ALLEVIATING, AND/OR TREATING TISSUE DYSFUNCTION CAUSED BY TOXIC INSULTS” (priority 2022, published 2026)
